According to article PMC5218480 (PLoS ONE, 2017):

Tested on: MV-4-11 cells
Experiment: Gene expression microarray analysis (Affymetrix PrimeView) and GSEA
Format: cell-based, human
Set-up: RFU PODN (11730768_x_at) / Fold change /veh PODN (11730768_x_at) / RFU LINC00158 (11744669_a_at) / Fold change /veh LINC00158 (11744669_a_at) / RFU DUSP10 (11751237_a_at) / Fold change /veh DUSP10 (11751237_a_at) / RFU ID3 (11757404_x_at) / Fold change /veh ID3 (11757404_x_at) / RFU PLEKHG5 (11737974_s_at) / Fold change /veh PLEKHG5 (11737974_s_at) / RFU LRRC4B (11730491_at) / Fold change /veh LRRC4B (11730491_at) / RFU GIMAP4 (11747438_a_at) / Fold change /veh GIMAP4 (11747438_a_at) / RFU KRT8 (11758183_x_at) / Fold change /veh KRT8 (11758183_x_at) / RFU CNN1 (11734310_a_at) / Fold change /veh CNN1 (11734310_a_at) / RFU VPS37D (11726825_at) / Fold change /veh VPS37D (11726825_at) / RFU C10orf10 (11716522_x_at) / Fold change /veh C10orf10 (11716522_x_at) / RFU KIR2DL2 /// KIR2DL4 /// KIR2DL5A /// KIR2DL5B /// KIR2DS1 /// KIR2DS2 /// KIR2DS3 /// KIR2DS4 /// KIR3DL3 /// KIR3DL3 /// KIR3DS1 (11738374_at) / Fold change /veh KIR2DL2 /// KIR2DL4 /// KIR2DL5A /// KIR2DL5B /// KIR2DS1 /// KIR2DS2 /// KIR2DS3 /// KIR2DS4 /// KIR3DL3 /// KIR3DL3 /// KIR3DS1 (11738374_at) / RFU C1QL1 (11718748_at) / Fold change /veh C1QL1 (11718748_at) / RFU TMPRSS4 (11747572_a_at) / Fold change /veh TMPRSS4 (11747572_a_at) / RFU HAMP (11756126_x_at) / Fold change /veh HAMP (11756126_x_at) / RFU RNFT2 (11725882_a_at) / Fold change /veh RNFT2 (11725882_a_at) / RFU NR4A2 (11747474_a_at) / Fold change /veh NR4A2 (11747474_a_at) / RFU ABCC12 (11746883_a_at) / Fold change /veh ABCC12 (11746883_a_at) / RFU TMEM136 (11760407_x_at) / Fold change /veh TMEM136 (11760407_x_at) / RFU CLDN22 /// WWC2 (11732394_at) / Fold change /veh CLDN22 /// WWC2 (11732394_at) / RFU HLA-DPB1 (11760878_x_at) / Fold change /veh HLA-DPB1 (11760878_x_at) / RFU SPINT1 (11716480_a_at) / Fold change /veh SPINT1 (11716480_a_at) / RFU GAP43 (11754022_s_at) / Fold change /veh GAP43 (11754022_s_at) / RFU A4GNT (11735810_at) / Fold change /veh A4GNT (11735810_at) / RFU PRB3 (11715151_x_at) / Fold change /veh PRB3 (11715151_x_at) / RFU TUBB4B (11761932_at) / Fold change /veh TUBB4B (11761932_at) / RFU CAPN14 (11732068_a_at) / Fold change /veh CAPN14 (11732068_a_at) / RFU TMCC2 (11721928_a_at) / Fold change /veh TMCC2 (11721928_a_at) / RFU IRGQ (11745062_a_at) / Fold change /veh IRGQ (11745062_a_at) / RFU FAM174B (11720279_a_at) / Fold change /veh FAM174B (11720279_a_at) / RFU TMPRSS4 (11748680_a_at) / Fold change /veh TMPRSS4 (11748680_a_at) / RFU FAM212B (11763350_a_at) / Fold change /veh FAM212B (11763350_a_at) / RFU PLEKHG5 (11743358_a_at) / Fold change /veh PLEKHG5 (11743358_a_at) / RFU ZSCAN30 (11745921_a_at) / Fold change /veh ZSCAN30 (11745921_a_at) / RFU CMKLR1 (11741424_a_at) / Fold change /veh CMKLR1 (11741424_a_at) / RFU LOC101060620 /// MAPK8IP1 (11723275_at) / Fold change /veh LOC101060620 /// MAPK8IP1 (11723275_at) / RFU SPTSSB (11747773_x_at) / Fold change /veh SPTSSB (11747773_x_at) / RFU PRSS12 (11739890_at) / Fold change /veh PRSS12 (11739890_at) / RFU BIN1 (11741810_x_at) / Fold change /veh BIN1 (11741810_x_at) / RFU WNT11 (11732464_a_at) / Fold change /veh WNT11 (11732464_a_at) / RFU C10orf10 (11716521_a_at) / Fold change /veh C10orf10 (11716521_a_at) / RFU C5orf56 (11738089_at) / Fold change /veh C5orf56 (11738089_at) / RFU CYB561 (11721691_x_at) / Fold change /veh CYB561 (11721691_x_at) / RFU ANKRD19P (11752326_a_at) / Fold change /veh ANKRD19P (11752326_a_at) / RFU OR2T12 /// OR2T33 /// OR2T8 (11738714_s_at) / Fold change /veh OR2T12 /// OR2T33 /// OR2T8 (11738714_s_at) / RFU VCAN (11748164_a_at) / Fold change /veh VCAN (11748164_a_at) / RFU JSRP1 (11732532_at) / Fold change /veh JSRP1 (11732532_at) / RFU KRTAP10-11 (11738290_x_at) / Fold change /veh KRTAP10-11 (11738290_x_at) / RFU MYO3A (11730013_a_at) / Fold change /veh MYO3A (11730013_a_at) / RFU EBF3 (11725865_a_at) / Fold change /veh EBF3 (11725865_a_at) / RFU CAMK2N1 (11719241_x_at) / Fold change /veh CAMK2N1 (11719241_x_at) / RFU C5orf56 (11738088_a_at) / Fold change /veh C5orf56 (11738088_a_at) / RFU OLFML3 (11715873_a_at) / Fold change /veh OLFML3 (11715873_a_at) / RFU LOC100653217 /// NTM (11731650_a_at) / Fold change /veh LOC100653217 /// NTM (11731650_a_at) / RFU MAPK11 (11762145_a_at) / Fold change /veh MAPK11 (11762145_a_at) / RFU FIZ1 (11724087_x_at) / Fold change /veh FIZ1 (11724087_x_at) / RFU OASL (11726364_x_at) / Fold change /veh OASL (11726364_x_at) / RFU SOX15 (11748057_x_at) / Fold change /veh SOX15 (11748057_x_at) / RFU CD79A (11719716_a_at) / Fold change /veh CD79A (11719716_a_at) / RFU HIST1H1D (11736915_at) / Fold change /veh HIST1H1D (11736915_at) / RFU CASKIN2 (11723855_a_at) / Fold change /veh CASKIN2 (11723855_a_at) / RFU LOC730098 (11760151_x_at) / Fold change /veh LOC730098 (11760151_x_at) / RFU OR4N2 (11742367_at) / Fold change /veh OR4N2 (11742367_at) / RFU PRRT2 (11749266_a_at) / Fold change /veh PRRT2 (11749266_a_at) / RFU SNX32 (11753110_a_at) / Fold change /veh SNX32 (11753110_a_at) / RFU CDHR5 (11726645_a_at) / Fold change /veh CDHR5 (11726645_a_at) / RFU RCAN1 (11760418_a_at) / Fold change /veh RCAN1 (11760418_a_at) / RFU FAM167A (11723789_a_at) / Fold change /veh FAM167A (11723789_a_at) / RFU FAM26E (11764081_at) / Fold change /veh FAM26E (11764081_at) / RFU ISYNA1 (11749810_s_at) / Fold change /veh ISYNA1 (11749810_s_at) / RFU ACY1 (11761880_at) / Fold change /veh ACY1 (11761880_at) / RFU 11764098_at / Fold change /veh 11764098_at / RFU SAMD14 (11745864_x_at) / Fold change /veh SAMD14 (11745864_x_at) / RFU NPB (11741838_a_at) / Fold change /veh NPB (11741838_a_at) / RFU TMPRSS6 (11731388_a_at) / Fold change /veh TMPRSS6 (11731388_a_at) / RFU KRTAP10-2 (11738614_at) / Fold change /veh KRTAP10-2 (11738614_at) / RFU ARHGAP8 /// PRR5-ARHGAP8 (11727945_x_at) / Fold change /veh ARHGAP8 /// PRR5-ARHGAP8 (11727945_x_at) / RFU KRTAP5-7 /// NADSYN1 (11734609_at) / Fold change /veh KRTAP5-7 /// NADSYN1 (11734609_at) / RFU RASL12 (11751679_a_at) / Fold change /veh RASL12 (11751679_a_at) / RFU CDKN2B (11736163_a_at) / Fold change /veh CDKN2B (11736163_a_at) / RFU PRF1 (11729649_at) / Fold change /veh PRF1 (11729649_at) / RFU, ZNF638 /// ZNF638-IT1 / Fold change vs veh, ZNF638 /// ZNF638-IT1 / RFU, PANK3 / Fold change vs veh, PANK3 / RFU, SH3YL1 / Fold change vs veh, SH3YL1 / RFU, ZEB2 / Fold change vs veh, ZEB2 / RFU, NRIP1 / Fold change vs veh, NRIP1 / RFU, PTTG1IP / Fold change vs veh, PTTG1IP / RFU, CAPN2 / Fold change vs veh, CAPN2 / RFU, MED14 / Fold change vs veh, MED14 / RFU, SNORA58 / Fold change vs veh, SNORA58 / RFU, C1orf63 / Fold change vs veh, C1orf63 / RFU, LRRFIP1 / Fold change vs veh, LRRFIP1 / RFU, NDUFAF7 / Fold change vs veh, NDUFAF7 / RFU, SLC12A2 / Fold change vs veh, SLC12A2 / RFU, IBTK / Fold change vs veh, IBTK / RFU, ESF1 / Fold change vs veh, ESF1 / Fold change vs veh, TMEM50B / RFU, TAOK1 / Fold change vs veh, TAOK1 / RFU, ACBD3 / Fold change vs veh, ACBD3 / RFU, TMA16 / Fold change vs veh, TMA16 / RFU, RWDD3 / Fold change vs veh, RWDD3 / RFU, BCAT1 / Fold change vs veh, BCAT1 / RFU, EDEM3 / Fold change vs veh, EDEM3 / RFU, TMEM33 / Fold change vs veh, TMEM33 / RFU, WDR75 / Fold change vs veh, WDR75 / RFU, AHCTF1 / Fold change vs veh, AHCTF1 / RFU, TFRC / Fold change vs veh, TFRC / RFU, ZDHHC17 / Fold change vs veh, ZDHHC17 / RFU, NOM1 / Fold change vs veh, NOM1 / RFU, ARL8B / Fold change vs veh, ARL8B / RFU, ZBTB11 / Fold change vs veh, ZBTB11 / RFU, TAMM41 / Fold change vs veh, TAMM41 / RFU, KIAA1704 /// LOC100996395 / Fold change vs veh, KIAA1704 /// LOC100996395 / RFU, ING1 / Fold change vs veh, ING1 / RFU, TRMT61B / Fold change vs veh, TRMT61B / RFU, FUBP3 / Fold change vs veh, FUBP3 / RFU, TP53 / Fold change vs veh, TP53 / RFU, TNKS2 / Fold change vs veh, TNKS2 / RFU, ZFP14 / Fold change vs veh, ZFP14 / RFU, ACTR2 / Fold change vs veh, ACTR2 / RFU, PPP3R1 / Fold change vs veh, PPP3R1 / RFU, PIK3R1 / Fold change vs veh, PIK3R1 / RFU, HNRNPA1 / Fold change vs veh, HNRNPA1 / RFU, RNF170 / Fold change vs veh, RNF170 / RFU, ZNF28 / Fold change vs veh, ZNF28 / RFU, RNGTT / Fold change vs veh, RNGTT / RFU, OGT / Fold change vs veh, OGT / RFU, BRD1 / Fold change vs veh, BRD1 / RFU, MARS / Fold change vs veh, MARS / RFU, ZNF655 / Fold change vs veh, ZNF655 / RFU, FAHD1 / Fold change vs veh, FAHD1 / RFU, BDP1 / Fold change vs veh, BDP1 / RFU, LRRCC1 / Fold change vs veh, LRRCC1 / RFU, ARID1A / Fold change vs veh, ARID1A / RFU, ZNF146 / Fold change vs veh, ZNF146 / RFU, ZNF330 / Fold change vs veh, ZNF330 / RFU, GPN3 / Fold change vs veh, GPN3 / RFU, C9orf123 / Fold change vs veh, C9orf123 / RFU, N4BP2L2 / Fold change vs veh, N4BP2L2 / RFU, ARFIP1 / Fold change vs veh, ARFIP1 / RFU, FAM179B / Fold change vs veh, FAM179B / RFU, BCL10 / Fold change vs veh, BCL10 / RFU, UHRF1BP1L / Fold change vs veh, UHRF1BP1L / RFU, BET1 / Fold change vs veh, BET1 / RFU, CNOT2 / Fold change vs veh, CNOT2 / RFU, ZNF268 / Fold change vs veh, ZNF268 / Fold change vs veh, ZNF507 / RFU, DGCR2 / Fold change vs veh, DGCR2 / RFU, WDSUB1 / Fold change vs veh, WDSUB1 / Fold change vs veh, HSP90B1 /// MIR3652 / RFU, ADSS / Fold change vs veh, ADSS / RFU, GK / Fold change vs veh, GK / RFU, ZNF148 / Fold change vs veh, ZNF148 / RFU, TAF9 / Fold change vs veh, TAF9 / RFU, SLC1A5 / Fold change vs veh, SLC1A5 / RFU, SLMO2 / Fold change vs veh, SLMO2 / RFU, ABCC4 / Fold change vs veh, ABCC4 / RFU, LOC101060439 /// RAP1B / Fold change vs veh, LOC101060439 /// RAP1B / RFU, RFX7 / Fold change vs veh, RFX7 / RFU, GTPBP10 / Fold change vs veh, GTPBP10 / RFU, CNEP1R1 / Fold change vs veh, CNEP1R1 / RFU, BIVM-ERCC5 /// ERCC5 / Fold change vs veh, BIVM-ERCC5 /// ERCC5 / RFU, ILF3 / Fold change vs veh, ILF3 / RFU 11762660_at / Fold change /veh 11762660_at / RFU VCAN (11757783_s_at) / Fold change /veh VCAN (11757783_s_at) / RFU DDX43 (11728927_at) / Fold change /veh DDX43 (11728927_at) / RFU KRT8 (11758188_x_at) / Fold change /veh KRT8 (11758188_x_at) / RFU NKD1 (11759106_at) / Fold change /veh NKD1 (11759106_at) / RFU SRD5A1 (11742802_a_at) / Fold change /veh SRD5A1 (11742802_a_at) / RFU TPSAB1 /// TPSB2 (11721975_s_at) / Fold change /veh TPSAB1 /// TPSB2 (11721975_s_at) / RFU GSTM3 (11746129_a_at) / Fold change /veh GSTM3 (11746129_a_at) / RFU IL23R (11737362_x_at) / Fold change /veh IL23R (11737362_x_at) / RFU TMEM51 (11727254_a_at) / Fold change /veh TMEM51 (11727254_a_at) / RFU PIWIL2 (11732686_x_at) / Fold change /veh PIWIL2 (11732686_x_at) / RFU ORM1 (11744905_x_at) / Fold change /veh ORM1 (11744905_x_at) / RFU CCDC152 (11743942_at) / Fold change /veh CCDC152 (11743942_at) / RFU ECM1 (11717891_a_at) / Fold change /veh ECM1 (11717891_a_at) / RFU IL23R (11748794_a_at) / Fold change /veh IL23R (11748794_a_at) / RFU TNFAIP8L3 (11732012_x_at) / Fold change /veh TNFAIP8L3 (11732012_x_at) / RFU MBOAT4 (11741988_at) / Fold change /veh MBOAT4 (11741988_at) / RFU 11764193_at / Fold change /veh 11764193_at / RFU TMEM53 (11763286_at) / Fold change /veh TMEM53 (11763286_at) / RFU MAGEB2 (11727129_at) / Fold change /veh MAGEB2 (11727129_at) / RFU TMEM200A (11744735_a_at) / Fold change /veh TMEM200A (11744735_a_at) / RFU CCDC152 (11751479_a_at) / Fold change /veh CCDC152 (11751479_a_at) / RFU FAM211A (11726209_a_at) / Fold change /veh FAM211A (11726209_a_at) / RFU RGS16 (11746705_a_at) / Fold change /veh RGS16 (11746705_a_at) / RFU VCAN (11755009_s_at) / Fold change /veh VCAN (11755009_s_at) / RFU RHOB (11743442_s_at) / Fold change /veh RHOB (11743442_s_at) / RFU RGS16 (11720943_a_at) / Fold change /veh RGS16 (11720943_a_at) / RFU RGS16 (11720944_at) / Fold change /veh RGS16 (11720944_at) / RFU, VPS4B / Fold change vs veh, VPS4B / RFU, CREB1 / Fold change vs veh, CREB1 / RFU, DNAJC13 / Fold change vs veh, DNAJC13 / RFU, GNAQ / Fold change vs veh, GNAQ / RFU, CDK5R1 / Fold change vs veh, CDK5R1 / RFU, ZRANB3 / Fold change vs veh, ZRANB3 / RFU, CUL4A / Fold change vs veh, CUL4A / RFU, CCNY / Fold change vs veh, CCNY / RFU, UFL1 / Fold change vs veh, UFL1 / RFU, COG3 / Fold change vs veh, COG3 / RFU, DIAPH2 / Fold change vs veh, DIAPH2 / RFU, SKA2 / Fold change vs veh, SKA2 / RFU, AFF3 / Fold change vs veh, AFF3 / RFU, LMF1 / Fold change vs veh, LMF1 / RFU, IPO11 / Fold change vs veh, IPO11 / RFU, DFFB / Fold change vs veh, DFFB / RFU, FOXP1 / Fold change vs veh, FOXP1 / RFU, CARD8 / Fold change vs veh, CARD8 / RFU, STRN3 / Fold change vs veh, STRN3 / RFU, ADK / Fold change vs veh, ADK / RFU, RASSF2 / Fold change vs veh, RASSF2 / RFU, WIPF1 / Fold change vs veh, WIPF1 / RFU, LARP1B / Fold change vs veh, LARP1B / RFU, RASA1 / Fold change vs veh, RASA1 / RFU, RB1 / Fold change vs veh, RB1 / RFU, PPFIA1 / Fold change vs veh, PPFIA1 / RFU, MAT2A / Fold change vs veh, MAT2A / RFU, CCT5 / Fold change vs veh, CCT5 / RFU, WDR92 / Fold change vs veh, WDR92 / RFU, CUX1 / Fold change vs veh, CUX1 / RFU, TTC7A / Fold change vs veh, TTC7A / RFU, TMEM135 / Fold change vs veh, TMEM135 / RFU, DEPTOR / Fold change vs veh, DEPTOR / RFU, CPM / Fold change vs veh, CPM / RFU, DNAJB6 / Fold change vs veh, DNAJB6 / RFU, CACNA2D3 / Fold change vs veh, CACNA2D3 / RFU, DTX4 / Fold change vs veh, DTX4 / RFU, TFCP2 / Fold change vs veh, TFCP2 / RFU, GMCL1 /// GMCL1P1 / Fold change vs veh, GMCL1 /// GMCL1P1 / RFU, AEBP2 / Fold change vs veh, AEBP2 / RFU, SNHG1 /// SNORD22 /// SNORD25 /// SNORD26 /// SNORD27 /// SNORD28 /// SNORD29 /// SNORD31 / Fold change vs veh, SNHG1 /// SNORD22 /// SNORD25 /// SNORD26 /// SNORD27 /// SNORD28 /// SNORD29 /// SNORD31 / Fold change (Aza/veh), C12orf56 (ProbeSet 11735607_a_at) / Fold change (ACY-1035/veh), C12orf56 (ProbeSet 11735607_a_at) / Fold change (Aza/veh), FGFR1OP (ProbeSet 11751329_s_at) / Fold change (ACY-1035/veh), FGFR1OP (ProbeSet 11751329_s_at) / Fold change (Aza/veh), VPS36 (ProbeSet 11739960_a_at) / Fold change (ACY-1035/veh), VPS36 (ProbeSet 11739960_a_at) / RFU SYPL1 (11715823_x_at) / Fold change /veh SYPL1 (11715823_x_at) / RFU IGFBP7 (11715501_s_at) / Fold change /veh IGFBP7 (11715501_s_at) / RFU REEP3 (11722064_at) / Fold change /veh REEP3 (11722064_at) / RFU IGLL1 (11728026_x_at) / Fold change /veh IGLL1 (11728026_x_at): dose or concentration left out as unconfirmed
Settings: ProbeSet 11757113_a_at; LIST D

Compound: Nc1ncn([C@@H]2O[C@H](CO)[C@@H](O)[C@H]2O)c(=O)n1 [azacitidine]
- RFU, SNHG1 /// SNORD22 /// SNORD25 /// SNORD26 /// SNORD27 /// SNORD28 /// SNORD29 /// SNORD31: 298.12 RFU
